In the supplement of paper PMC10307832:

Assays:
Assay in all cases: relative viability (nuclei count vs DMSO), 5 days (fraction); higher = more cells survive
NCI-H322M = tested on: NCI-H322M
In short: (§1)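 Medians of duplicate plates are given as relative viability. That measure is the nuclei count in treated wells divided by the count in vehicle wells. Counts were taken on 4× images of lung cancer cell lines in 1536-well plates, 5 days after pin-tool dosing the day after seeding with one drug alone or a fixed anchor-drug dose plus five library-drug doses (not always all listed) in √10 steps.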

CAL-12T = tested on: CAL-12T
In short: as §1

NCI-H1734 = tested on: NCI-H1734
In short: as §1

COR-L23 = tested on: COR-L23
In short: as §1

NCI-H1437 = tested on: NCI-H1437
In short: as §1

NCI-H2228 = tested on: NCI-H2228
In short: as §1

ABC-1 = tested on: ABC-1
In short: as §1

EKVX = tested on: EKVX
In short: as §1

NCI-H1355 = tested on: NCI-H1355
In short: as §1

PC-3 [JPC-3] = tested on: PC-3 [JPC-3]
In short: as §1

H3255 = tested on: H3255
In short: as §1

RERF-LC-KJ = tested on: RERF-LC-KJ
In short: as §1

NCI-H520 = tested on: NCI-H520
In short: as §1

LK-2 = tested on: LK-2
In short: as §1

SW 1573 = tested on: SW 1573
In short: as §1

NCI-H1650 = tested on: NCI-H1650
In short: as §1

HCC-15 = tested on: HCC-15
In short: as §1

NCI-H1563 = tested on: NCI-H1563
In short: as §1

NCI-H661 = tested on: NCI-H661
In short: as §1

HCC-827 = tested on: HCC-827
In short: as §1

NCI-H2405 = tested on: NCI-H2405
In short: as §1

PC-14 = tested on: PC-14
In short: as §1

Compound: CC1(C)CCC(c2ccc(Cl)cc2)=C(CN2CCN(c3ccc(C(=O)NS(=O)(=O)c4ccc(N[C@H](CCN5CCOCC5)CSc5ccccc5)c(S(=O)(=O)C(F)(F)F)c4)cc3)CC2)C1 [Navitoclax] + CS(=O)(=O)CCNCc1ccc(-c2ccc3ncnc(Nc4ccc(OCc5cccc(F)c5)c(Cl)c4)c3c2)o1 [Lapatinib] (partner 2 µM)
- relative viability (NCI-H322M; first compound 0.005 µM): 0.672
- relative viability (NCI-H322M; first compound 0.01581 µM): 0.603
- relative viability (NCI-H322M; first compound 0.05 µM): 0.625
- relative viability (NCI-H322M; first compound 0.1581 µM): 0.535
- relative viability (NCI-H322M; first compound 0.5 µM): 0.576
- relative viability (CAL-12T; first compound 0.005 µM): 0.751
- relative viability (CAL-12T; first compound 0.01581 µM): 0.504
- relative viability (CAL-12T; first compound 0.05 µM): 0.589
- relative viability (CAL-12T; first compound 0.1581 µM): 0.738
- relative viability (CAL-12T; first compound 0.5 µM): 0.637
- relative viability (NCI-H1734; first compound 0.005 µM): 1.09
- relative viability (NCI-H1734; first compound 0.01581 µM): 1.16
- relative viability (NCI-H1734; first compound 0.1581 µM): 0.973
- relative viability (NCI-H1734; first compound 0.5 µM): 1.09
- relative viability (COR-L23; first compound 0.005 µM): 0.919
- relative viability (COR-L23; first compound 0.01581 µM): 1.25
- relative viability (COR-L23; first compound 0.05 µM): 1.33
- relative viability (COR-L23; first compound 0.1581 µM): 0.705
- relative viability (COR-L23; first compound 0.5 µM): 0.922
- relative viability (NCI-H1437; first compound 0.005 µM): 0.729
- relative viability (NCI-H1437; first compound 0.01581 µM): 0.759
- relative viability (NCI-H1437; first compound 0.05 µM): 0.822
- relative viability (NCI-H1437; first compound 0.1581 µM): 0.819
- relative viability (NCI-H1437; first compound 0.5 µM): 0.831
- relative viability (NCI-H2228; first compound 0.005 µM): 1.09
- relative viability (NCI-H2228; first compound 0.01581 µM): 0.9
- relative viability (NCI-H2228; first compound 0.05 µM): 1.14
- relative viability (NCI-H2228; first compound 0.1581 µM): 0.893
- relative viability (NCI-H2228; first compound 0.5 µM): 1.03
- relative viability (ABC-1; first compound 0.005 µM): 1.1
- relative viability (ABC-1; first compound 0.01581 µM): 1.46
- relative viability (ABC-1; first compound 0.05 µM): 1.09
- relative viability (ABC-1; first compound 0.1581 µM): 1.19
- relative viability (ABC-1; first compound 0.5 µM): 1.05
- relative viability (EKVX; first compound 0.005 µM): 0.233
- relative viability (EKVX; first compound 0.01581 µM): 0.21
- relative viability (EKVX; first compound 0.05 µM): 0.161
- relative viability (EKVX; first compound 0.1581 µM): 0.206
- relative viability (EKVX; first compound 0.5 µM): 0.206
- relative viability (NCI-H1355; first compound 0.005 µM): 0.988
- relative viability (NCI-H1355; first compound 0.01581 µM): 0.956
- relative viability (NCI-H1355; first compound 0.05 µM): 1.03
- relative viability (NCI-H1355; first compound 0.1581 µM): 1.05
- relative viability (NCI-H1355; first compound 0.5 µM): 1.02
- relative viability (PC-3 [JPC-3]; first compound 0.005 µM): 0.403
- relative viability (PC-3 [JPC-3]; first compound 0.01581 µM): 0.438
- relative viability (PC-3 [JPC-3]; first compound 0.05 µM): 0.441
- relative viability (PC-3 [JPC-3]; first compound 0.1581 µM): 0.474
- relative viability (PC-3 [JPC-3]; first compound 0.5 µM): 0.487
- relative viability (H3255; first compound 0.005 µM): 0.271
- relative viability (H3255; first compound 0.01581 µM): 0.258
- relative viability (H3255; first compound 0.05 µM): 0.226
- relative viability (H3255; first compound 0.1581 µM): 0.25
- relative viability (H3255; first compound 0.5 µM): 0.19
- relative viability (RERF-LC-KJ; first compound 0.005 µM): 0.857
- relative viability (RERF-LC-KJ; first compound 0.01581 µM): 0.809
- relative viability (RERF-LC-KJ; first compound 0.05 µM): 0.75
- relative viability (RERF-LC-KJ; first compound 0.1581 µM): 0.852
- relative viability (RERF-LC-KJ; first compound 0.5 µM): 0.884
- relative viability (NCI-H520; first compound 0.005 µM): 0.855
- relative viability (NCI-H520; first compound 0.01581 µM): 0.965
- relative viability (NCI-H520; first compound 0.05 µM): 0.967
- relative viability (NCI-H520; first compound 0.1581 µM): 0.763
- relative viability (NCI-H520; first compound 0.5 µM): 0.758
- relative viability (LK-2; first compound 0.005 µM): 0.802
- relative viability (LK-2; first compound 0.01581 µM): 1.08
- relative viability (LK-2; first compound 0.05 µM): 1.04
- relative viability (LK-2; first compound 0.1581 µM): 0.886
- relative viability (LK-2; first compound 0.5 µM): 1.05
- relative viability (SW 1573; first compound 0.005 µM): 1.22
- relative viability (SW 1573; first compound 0.01581 µM): 1.08
- relative viability (SW 1573; first compound 0.05 µM): 1.01
- relative viability (SW 1573; first compound 0.1581 µM): 1.04
- relative viability (SW 1573; first compound 0.5 µM): 1.09
- relative viability (NCI-H1650; first compound 0.005 µM): 0.818
- relative viability (NCI-H1650; first compound 0.01581 µM): 1.07
- relative viability (NCI-H1650; first compound 0.05 µM): 0.88
- relative viability (NCI-H1650; first compound 0.1581 µM): 1.02
- relative viability (NCI-H1650; first compound 0.5 µM): 0.957
- relative viability (HCC-15; first compound 0.005 µM): 0.814
- relative viability (HCC-15; first compound 0.01581 µM): 0.946
- relative viability (HCC-15; first compound 0.05 µM): 0.713
- relative viability (HCC-15; first compound 0.1581 µM): 0.813
- relative viability (HCC-15; first compound 0.5 µM): 0.836
- relative viability (NCI-H1563; first compound 0.005 µM): 1.08
- relative viability (NCI-H1563; first compound 0.01581 µM): 1.23
- relative viability (NCI-H1563; first compound 0.05 µM): 0.877
- relative viability (NCI-H1563; first compound 0.1581 µM): 1.05
- relative viability (NCI-H1563; first compound 0.5 µM): 1.44
- relative viability (NCI-H661; first compound 0.005 µM): 0.542
- relative viability (NCI-H661; first compound 0.01581 µM): 0.613
- relative viability (NCI-H661; first compound 0.05 µM): 0.484
- relative viability (NCI-H661; first compound 0.1581 µM): 0.504
- relative viability (NCI-H661; first compound 0.5 µM): 0.391
- relative viability (HCC-827; first compound 0.005 µM): 0.199
- relative viability (HCC-827; first compound 0.01581 µM): 0.2
- relative viability (HCC-827; first compound 0.05 µM): 0.194
- relative viability (HCC-827; first compound 0.1581 µM): 0.21
- relative viability (HCC-827; first compound 0.5 µM): 0.196
- relative viability (NCI-H2405; first compound 0.005 µM): 1.03
- relative viability (NCI-H2405; first compound 0.01581 µM): 1.29
- relative viability (NCI-H2405; first compound 0.05 µM): 1.19
- relative viability (NCI-H2405; first compound 0.1581 µM): 1.02
- relative viability (NCI-H2405; first compound 0.5 µM): 0.927
- relative viability (PC-14; first compound 0.005 µM): 0.343
- relative viability (PC-14; first compound 0.01581 µM): 0.343
- relative viability (PC-14; first compound 0.05 µM): 0.283
- relative viability (PC-14; first compound 0.1581 µM): 0.385
- relative viability (PC-14; first compound 0.5 µM): 0.338
